Measured values as given in US10988459B2 (priority 2015, dated 2021).

The molecules below were run against human RIP1 kinase domain (2-375) (Homo sapiens (Human), UniProt Q13546) (assay: biochemical). Details: Table 1; apparent Ki (Morrison tight-binding fit); 50 nM RIP1 kinase domain, 50 uM ATP, 2 hours incubation; read-out: RIP1 Ki.
Type: biochemical
Procedure, shortened: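 50 nM purified kinase domain from baculovirus-infected insect cells, incubated 2 h with compound in 50 mM Hepes pH 7.5, 30 mM MgCl2, 1 mM DTT, 50 uM ATP, 0.002% Brij-35, 0.5% DMSO. ADP formation read by Transcreener FP at 633 nm excitation. Ki^app fitted with the Morrison tight-binding equation.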

Chain of human RIP1 kinase domain (2-375) (Q13546 2-375): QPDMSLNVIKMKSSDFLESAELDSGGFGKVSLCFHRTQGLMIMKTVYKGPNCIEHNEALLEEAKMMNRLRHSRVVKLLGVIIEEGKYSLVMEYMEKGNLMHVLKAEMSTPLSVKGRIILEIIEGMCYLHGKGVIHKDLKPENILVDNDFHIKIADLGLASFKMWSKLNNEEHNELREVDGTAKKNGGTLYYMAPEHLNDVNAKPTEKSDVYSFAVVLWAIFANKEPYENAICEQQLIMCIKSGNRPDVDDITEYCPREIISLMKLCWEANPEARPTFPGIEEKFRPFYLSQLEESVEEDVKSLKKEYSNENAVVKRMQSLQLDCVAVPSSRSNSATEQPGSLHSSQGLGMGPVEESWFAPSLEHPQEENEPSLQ

First: CN1C(=O)[C@@H](NC(=O)c2n[nH]c3c2CC(C(F)(F)F)CC3)COc2ccccc21 (stereo partly drawn) [Example 34, N-((S)-5-methyl-4-oxo-2,3,4,5-tetrahydrobenzo[b][1,4]oxazepin-3-yl)-5-(trifluoromethyl)-4,5,6,7-tetrahydro-1H-indazole-3-carboxamide]
Second: CC12Cc3[nH]nc(C(=O)N[C@H]4CCc5cc(Cl)ccc5NC4=O)c3CC1C2 (stereo partly drawn) [Example 50, N-((S)-7-chloro-2-oxo-2,3,4,5-tetrahydro-1H-benzo[b]azepin-3-yl)-5a-methyl-1,4,4a,5,5a,6-hexahydrocyclopropa[f]indazole-3-carboxamide]
The Ki of the first is 510-fold lower: 7.68 nM for the first, 3900 nM for the second. The first binds more tightly here.

Same assay, conditions: Table 3; apparent Ki (Morrison tight-binding fit); 50 nM RIP1 kinase domain, 50 uM ATP, 2 hours incubation; read-out: Ki

`CN1C(=O)[C@@H](NC(=O)c2ncn3ccc(C(F)(F)F)cc23)CCn2nccc21` [Example 336, (S)-N-(4-methyl-5-oxo-5,6,7,8-tetrahydro-4H-pyrazolo[1,5-a][1,3]diazepin-6-yl)-7-(trifluoromethyl)imidazo[1,5-a]pyridine-1-carboxamide] showed a Ki of 231 nM.

Same assay, conditions: Table 5; apparent Ki (Morrison tight-binding fit); 50 nM RIP1 kinase domain, 50 uM ATP, 2 hours incubation; read-out: Ki

`CN1C(=O)[C@@H](NC(=O)c2cc3n(n2)CCC[C@@H]3c2ccccc2F)COc2ccccc21` [Example 709, (4R)-4-(2-fluorophenyl)-N-[(3S)-5-methyl-4-oxo-2,3-dihydro-1,5-benzoxazepin-3-yl]-4,5,6,7-tetrahydropyrazolo[1,5-a]pyridine-2-carboxamide] and `Cc1cc2n(n1)CC[C@H](NC(=O)c1cn(Cc3ccccc3)cn1)C(=O)N2C` [Example 751, 1-benzyl-N-[(6S)-2,4-dimethyl-5-oxo-7,8-dihydro-6H-pyrazolo[1,5-a][1,3]diazepin-6-yl]imidazole-4-carboxamide] are within 1.5-fold of each other in Ki: 34 nM for the first, 44 nM for the second.

First: Cc1cc2n(n1)CC[C@H](NC(=O)c1cc3c(Br)cccc3cn1)C(=O)N2C (racemic) [Example 701, 5-bromo-N-[rac-(6S)-2,4-dimethyl-5-oxo-7,8-dihydro-6H-pyrazolo[1,5-a][1,3]diazepin-6-yl]isoquinoline-3-carboxamide]
Second: COCCc1cc2n(n1)CC[C@H](NC(=O)c1ncn(Cc3ccccc3)n1)C(=O)N2C [Example 767, 1-benzyl-N-[(6S)-2-(2-methoxyethyl)-4-methyl-5-oxo-7,8-dihydro-6H-pyrazolo [1,5-a][1,3]diazepin-6-yl]-1,2,4-triazole-3-carboxamide]
The Ki of the first is 9.7-fold higher: 618 nM for the first, 64 nM for the second. The second binds more tightly here.

Same assay, conditions: human RIP1 kinase domain (2-375), 50 uM ATP, 2 hours incubation, Transcreener ADP assay; read-out: RIP1 Ki

Compared with `CN1C(=O)[C@@H](NC(=O)c2n[nH]c3ncc(C(F)(F)C(F)(F)F)cc23)COc2ccccc21` [Example 117, (S)—N-(5-methyl-4-oxo-2,3,4,5-tetrahydrobenzo[b][1,4]oxazepin-3-yl)-5-(perfluoroethyl)-1H-pyrazolo[3,4-b]pyridine-3-carboxamide], `O=C(N[C@H]1COc2cc(F)cc(F)c2NC1=O)c1n[nH]c2c1C[C@@H](C(F)(F)F)CC2` (single isomer, unassigned) [Example 86] is 3.7-fold higher in Ki: 5.6 nM for the first, 20.8 nM for the second. The first binds more tightly here.

Compared with `CN1C(=O)[C@@H](NC(=O)c2ncn(Cc3ccc(F)cc3)n2)CCn2nc(C3CC3)cc21` [Example 225, (S)—N-(2-cyclopropyl-4-methyl-5-oxo-5,6,7,8-tetrahydro-4H-pyrazolo[1,5-a][1,3]diazepin-6-yl)-1-(4-fluorobenzyl)-1H-1,2,4-triazole-3-carboxamide], `Cc1cc2n(n1)CC[C@H](NC(=O)c1ncn(Cc3ccc(F)c(F)c3)n1)C(=O)N2C` [Example 220, (S)-1-(3,4-difluorobenzyl)-N-(2,4-dimethyl-5-oxo-5,6,7,8-tetrahydro-4H-pyrazolo[1,5-a][1,3]diazepin-6-yl)-1H-1,2,4-triazole-3-carboxamide] is 2.2-fold higher in Ki: 21 nM for the first, 47.1 nM for the second. The first binds more tightly here.

Going from `Cc1cc2n(n1)CC[C@H](NC(=O)c1ncn(Cc3cccc(F)c3F)n1)C(=O)N2C` [Example 219, (S)-1-(2,3-difluorobenzyl)-N-(2,4-dimethyl-5-oxo-5,6,7,8-tetrahydro-4H-pyrazolo[1,5-a][1,3]diazepin-6-yl)-1H-1,2,4-triazole-3-carboxamide] to `CN1C(=O)[C@@H](NC(=O)c2ncn(Cc3ccccc3)n2)CC[C@H]2[C@@H]1C2(F)F` (single isomer, unassigned) [Example 130], the Ki rises from 29.7 nM to greater than 10000 nM. The first binds more tightly here.

Same assay, conditions: human RIP1 kinase domain (2-375), Transcreener ADP assay, 50 uM ATP, 2 hours incubation; read-out: RIP1 Ki

Compared with `Cc1nn2c(c1C)N(C)C(=O)[C@@H](NC(=O)c1ncn(Cc3cccc(F)c3F)n1)CC2` [Example 272, (S)-1-(2,3-difluorobenzyl)-N-(2,3,4-trimethyl-5-oxo-5,6,7,8-tetrahydro-4H-pyrazolo[1,5-a][1,3]diazepin-6-yl)-1H-1,2,4-triazole-3-carboxamide], `Cc1cc2n(n1)CCC(NC(=O)c1ncn(Cc3ccc(Cl)cc3)n1)C(=O)N2C` (centres unmarked) [Example 249, 1-(4-chlorobenzyl)-N-(2,4-dimethyl-5-oxo 6,7,8-tetrahydro-4H-pyrazolo[1,5-a][1,3]diazepin-6-yl)-1H-1,2,4-triazole-3-carboxamide] is 2-fold higher in Ki: 45.2 nM for the first, 92.1 nM for the second. The first binds more tightly here.

In the case of `CN1C(=O)[C@@H](NC(=O)c2cc(C3(O)CCCC3)ccn2)COc2ccccc21` [Example 328, (S)-4-(1-hydroxycyclopentyl)-N-(5-methyl-4-oxo-2,3,4,5-tetrahydrobenzo[b][1,4]oxazepin-3-yl)picolinamide], the Ki is reported as 990 nM.

Same assay, conditions: read-out: RIP1 Ki

`CN1C(=O)[C@@H](NC(=O)c2n[nH]c3c2CC(C(C)(C)C)CC3)COc2ccccc21` (stereo partly drawn) [Example 3, 5-(tert-butyl)-N—((S)-5-methyl-4-oxo-2,3,4,5-tetrahydrobenzo[b][1,4]oxazepin-3-yl)-4,5,6,7-tetrahydro-1H-indazole-3-carboxamide] gave a Ki of 68.8 nM.

Same assay, conditions: tight-binding apparent inhibition constant; human RIP1 kinase domain (2-375) 50 nM, 50 uM ATP, 2 hours; read-out: Ki

Compared with `CN1C(=O)[C@@H](NC(=O)c2nc3n(n2)C(c2ccccc2)CCC3)COc2ccccc21` (stereo partly drawn) [Example 376, N—((S)-5-methyl-4-oxo-2,3,4,5-tetrahydrobenzo[b][1,4]oxazepin-3-yl)-5-phenyl-5,6,7,8-tetrahydro-[1,2,4]triazolo[1,5-a]pyridine-2-carboxamide], `CN1C(=O)[C@@H](NC(=O)c2nc3n(n2)[C@H](c2ccccc2)CCC3)CCn2nccc21` (single isomer, unassigned) [Example 384] is 50-fold higher in Ki: 42.3 nM for the first, 2100 nM for the second.

Going from `CN1C(=O)[C@@H](NC(=O)c2nc3n(n2)C(C2CCOCC2)CCC3)COc2ccccc21` (stereo partly drawn) [Example 408, N—((S)-5-methyl-4-oxo-2,3,4,5-tetrahydrobenzo[b][1,4]oxazepin-3-yl)-5-(tetrahydro-2H-pyran-4-yl)-5,6,7,8-tetrahydro-[1,2,4]triazolo[1,5-a]pyridine-2-carboxamide] to `CN1C(=O)[C@@H](NC(=O)c2nc3n(n2)C(c2cnn(C)c2)CCC3)CCn2nccc21` (stereo partly drawn) [Example 397, 5-(1-methyl-1H-pyrazol-4-yl)-N—((S)-4-methyl-5-oxo-5,6,7,8-tetrahydro-4H-pyrazolo[1,5-a][1,3]diazepin-6-yl)-5,6,7,8-tetrahydro-[1,2,4]triazolo[1,5-a]pyridine-2-carboxamide], the Ki rises from 147 nM to 709 nM (4.8-fold). The first binds more tightly here.

`CN1C(=O)[C@H](NC(=O)c2ncn(Cc3ccccc3F)n2)CCn2ccnc21` [Example 601, 1-[(2-fluorophenyl)methyl]-N-(7R)-9-methyl-8-oxo-6,7-dihydro-5H-imidazo[1,2-a][1,3]diazepin-7-yl-1,2,4-triazole-3-carboxamide] and `CN1C(=O)[C@H](NC(=O)c2ncn(Cc3c(F)cccc3F)n2)CCn2ccnc21` [Example 602, 1-[(2,6-difluorophenyl)methyl]-N-[(7R)-9-methyl-8-oxo-6,7-dihydro-5H-imidazo[1,2-a][1,3]diazepin-7-yl]-1,2,4-triazole-3-carboxamide] are within 1.5-fold of each other in Ki: 43 nM for the first, 31 nM for the second.
